In patent US20110034472A1, “Novel Compounds for Treatment of Cancer and Disorders Associated With Angiogenesis Function” (UNIVERSITY OF SOUTHERN CALIFORNIA, priority 2004, published 2011):
“Also recorded” adds a separate entry of the source. Counter-ions that a name gives are not always drawn. Like-named read-outs stand apart in the source and are kept apart here.

Columns and labels:
MDA-MB-435 cells [1] = experiment: MTT assay, continuous drug exposure for 48 hours (Table 3); format: cell-based, human; conditions: for IC80: MDA-MB-435, read-out: CC80
[2] = drugs with known mechanisms of cell cycle regulation; cited from earlier work
PC3 and DU145 cells = experiment: Apoptosis by sub-G0/G1 population (flow cytometry); format: cell-based, human; conditions: IC80 dose for 72 hours
Method: Apoptotic cell population increased with time in PC3 and DU145 treated with SC21 and CPT.
SC21 and CPT-induced apoptosis was measured by flow cytometry (FIG. 18). SC21 at an IC80 dose for 72 hours induced 12% to 15% apoptosis as measured by calculating sub-G0/G1 population. […] An early event in apoptotic cell death is the translocation of the phosphatidyl-serine residues to the outer region of the cell membrane. This event precedes nuclear breakdown, DNA fragmentation, the appearance of most apoptosis-associated molecules, and is readily measured by annexin V binding assay. By this method, we compared SC21 with CPT.

[3] = system: PC3 prostate cancer cells; experiment: MTT cytotoxicity assay, PC3; format: cell-based; conditions: Homo sapiens; PC3; 72 hours continuous exposure; read-out: IC50 values (mean ± SD)
Method: (§1) The sensitivity of a panel of seven human cancer cell lines to SC144 was assessed by MTT-assay. […] The sensitivity towards SC144 was time- and dose-dependent.
(§2) Cytotoxicity was assessed by a 3-(4,5-dimethylthiazol-2-yl)-2,5-diphenyltetrazolium bromide assay as previously described (Carmichael et al. (1987) Cancer Res. 47:936-42). Briefly, cells were seeded in 96-well microtiter plates (PC3 and DU145 at 5,000 cells/well and LNCaP at 10,000 cells/well; breast and ovarian cells at 4,000 cells/well) and allowed to attach. Cells were subsequently treated with a continuous exposure to the corresponding drug for 72 hours. A 3-(4,5-dimethylthiazol-2-yl)-2,5-diphenyltetrazolium bromide solution (at a final concentration of 0.5 mg/mL) was added to each well and cells were incubated for 4 hours at 37° C. After removal of the medium, DMSO was added and the absorbance was read at 570 nm. All assays were done in triplicate. The IC50 was then determined for each drug from a plot of log(drug concentration) versus percentage of cell kill.

[4] = system: MDA-MB-435 breast cancer cells; experiment: MTT cytotoxicity assay, MDA-MB-435; format: cell-based, human; conditions: for IC50: Homo sapiens
Method: as §1, §2
(§3) Cytotoxicity was assessed by a 3-(4,5-dimethylthiazol-2-yl)-2,5-diphenyltetrazolium bromide (MTT) assay as previously described.^9 Briefly, cells were seeded in 96-well microtiter plates and allowed to attach. Cells were subsequently treated with continuous exposure to the corresponding drug for 72 h. An MTT solution (at a final concentration of 0.5 mg/mL) was added to each well, and cells were incubated for 4 h at 37° C. After removal of the medium, DMSO was added and the absorbance was read at 570 nm. All assays were done in triplicate. The IC50 was then determined for each drug from a plot of log (drug concentration) versus percentage of cells killed.

HEY ovarian cancer cells = experiment: MTT cytotoxicity assay, HEY; format: cell-based, human; conditions: Homo sapiens; HEY; 72 hours continuous exposure; read-out: IC50 values (mean ± SD)
Method: as §1, §2

[5] = system: MCF-7 breast cancer cells; experiment: MTT cytotoxicity assay, MCF-7; format: cell-based, human; conditions: Homo sapiens, MCF7; MCF-7; 72 hours continuous exposure; read-out: IC50 values (mean ± SD)
Method: as §1, §2

MDA-MB-435 cells [6] = experiment: Annexin V/PI apoptosis analysis, SC144 and CPT; format: cell-based, human; conditions: 48 h; IC80
Source text: Cells were stained with annexin V/PI and analyzed by flow cytometry. Cells in the bottom left quadrant of each panel (Annexin V-negative, PI-negative) are viable, whereas cells in the bottom right quadrant (Annexin V-positive, PI-negative) are in the early stages of apoptosis, and cells in the top right quadrant (Annexin V-positive, PI-positive) are in later stages of apoptosis and necrosis.
An early event in apoptotic cell death is the translocation of the phosphatidyl-serine residues to the outer part of the cell membrane. This event precedes nuclear breakdown, DNA fragmentation, the appearance of most apoptosis-associated molecules, and is readily measured by annexin V binding assay. By this method, SC144 was compared with CPT.

[7] = system: DU145 prostate cancer cells; experiment: MTT cytotoxicity assay, DU145; format: cell-based; conditions: Homo sapiens, DU-145, 72 hours continuous exposure, read-out: IC50 values (mean ± SD)
Method: as §1, §2

[8] = system: MDA-MB-468 breast cancer cells; experiment: MTT cytotoxicity assay, MDA-MB-468; format: cell-based; conditions: Homo sapiens, 72 hours continuous exposure, read-out: IC50 values (mean ± SD)
Method: as §1, §2

DU145 cells = experiment: Annexin V/propidium iodide apoptosis assay, DU145; format: cell-based, human; conditions: 72 hours exposure, IC80
Method: FIG. 19 illustrates apoptosis analysis of DU145 cells treated with SC21 or CPT (IC80). Cells were treated with SC21 or CPT for 24, 48, and 72 h, harvested, stained with annexin V/propidium iodide and analyzed by flow cytometry. Untreated control cells (24 and 48 h) were also included in the analysis. Annexin VFITC signals are recorded in FL1-H or […] and propidium iodide in FL2-H or […]. Cells in the bottom left quadrant (annexin V-negative, propidium iodide-negative) are viable, whereas cells in the right quadrant (annexin V-positive, propidium iodide-negative) are in the early stages of apoptosis, and the cells in the top right quadrant (annexin V-positive, propidium iodide-positive) are in later stages of apoptosis and necrosis.
To quantify drug-induced apoptosis, annexin V/propidium iodide staining was done followed by flow cytometry. […] The resulting fluorescence (FLH-1 channel for green fluorescence and FLH-2 channel for red fluorescence) was measured by flow cytometry using a FACScan flow cytometer (Becton Dickinson).
SC21 and CPT-induced apoptosis was measured by flow cytometry (FIG. 18). SC21 at an IC80 dose for 72 hours induced 12% to 15% apoptosis as measured by calculating sub-G0/G1 population. […] This event precedes nuclear breakdown, DNA fragmentation, the appearance of most apoptosis-associated molecules, and is readily measured by annexin V binding assay. […]

[9] = system: LNCaP prostate cancer cells; experiment: MTT cytotoxicity assay, LNCaP; format: cell-based; conditions: Homo sapiens
Method: as §2, §3

CEM or HEY cells = experiment: Cytotoxicity of salicylhydrazides (Table 5); format: cell-based; conditions: Homo sapiens
Source text: Human prostate cancer cells (PC3, p53 null, AR−; DU145, p53 mutant, AR−; and LNCaP, p53 wild-type, AR+) and breast cancer cells (MCF-7, overexpressed wild-type p53, ER+; MDA-MB-468, p53 mutant, […]; and MDA-MB-435, p53 mutant, ER−) were obtained from American Type Cell Culture (Manassas, Va.). The human ovarian carcinoma cell line (HEY) naturally resistant to cisplatin (CDDP) was kindly provided by Dr. Dubeau (University of Southern California Norris Cancer Center; Buick et al. (1985) Cancer Res. 45:3668-76 and Hamaguchi et al. (1993) Cancer Res. 53:5225-32). The results with CEM cells were previously described (Neamati et al. (1998) J. Med. Chem. 41:3202-9). Cells were maintained as monolayer cultures in RPMI 1640 supplemented with 10% fetal bovine serum (Gemini-Bioproducts, Woodland, Calif.) and 2 mmol/L L-glutamine at 37° C. in a humidified atmosphere of 5% CO2. To remove the adherent cells from the flask for passaging and counting, cells were washed with PBS without calcium or magnesium, incubated with a small volume of 0.25% trypsin-EDTA solution (Sigma-Aldrich, St. Louis, Mo.) for 5 to 10 minutes, and washed with culture medium and centrifuged. All experiments were done using cells in exponential cell growth.
as §2

human CYP3A4 = human CYP3A4 (Homo sapiens, UniProt P08684); experiment: Inhibition of human cDNA-expressed CYP3A4 (BFC metabolism); format: in vitro ADME; conditions: BFC substrate, 37° C.
Method: The metabolism of fluorescent substrates by human cDNA-expressed CYP3A4 was assessed by incubation in 96 well plate at 37° C. Metabolism of 7-benzyloxy-4-trifluoromethylcoumarin (BFC) was assayed by measuring the production of the corresponding 7-hydroxy-4-trifluoro-methylcoumarin.
The investigation of cytochrome P450 enzyme inhibition by potential drug candidates can aid in predicting drug-drug interactions and/or unfavorable PK profiles produced upon dosing.

[10] = system: HCT 116 p53^+/+ colon cancer cells; experiment: MTT cytotoxicity assay, HCT 116 p53+/+; format: cell-based, human; conditions: Homo sapiens, 72 h
Source text: (§4) Human breast cancer cells MDA-MB-435 and colon cancer HT29, p53 mutant were purchased from the American Type Cell Culture (Manassas, Va.). The HCT116 P53^+/+ and HCT116 P53^−/− cells were kindly provided by Dr. Bert Vogelstein (Johns Hopkins Medical Institutions, Baltimore, Md.). Human prostate cancer cells, LNCaP, were kindly provided by Richard Cote (University of Southern California Keck School of Medicine). Cells were maintained as monolayer cultures in RPMI 1640 media supplemented with 10% fetal bovine serum (Gemini-Bioproducts, Woodland, Calif.) and 2 mmol/L L-glutamine at 37° C. in a humidified atmosphere of 5% CO2. To remove the adherent cells from the flask for passaging and counting, cells were washed with PBS without calcium or magnesium, incubated with a small volume of 0.25% trypsin-EDTA solution (Sigma-Aldrich, St. Louis, Mo.) for 5-10 min, and washed with culture medium and centrifuged. All experiments were performed using cells at exponential growth stage. Cells were routinely checked for mycoplasma contamination using a PCR-based assay (Stratagene, Cambridge, UK).
as §3

[11] = system: human cancer cell lines (MDA-MB-435 and three colon cancer cells); experiment: MTT assay, panel of breast, colon and prostate cell lines (Example V); format: cell-based
Method: All new compounds were tested in four human cancer cell lines, a breast cancer cell, MDA-MB-435, and three colon cancer cells.
as §3

HT29 colon cancer cells = experiment: MTT cytotoxicity assay, HT 29; format: cell-based, human; conditions: Homo sapiens, 72 h
Source text: as §4, §3

[12] = system: HCT 116 p53^−/− colon cancer cells; experiment: MTT cytotoxicity assay, HCT 116 p53-/-; format: cell-based, human; conditions: Homo sapiens, 72 h
Source text: as §4, §3

cancer cells = experiment: Colony formation assay; format: cell-based; conditions: doses ≧1 uM; hydrochloride
Method: FIG. 32. […] (A) The IC50 values of SC161′ range from 0.3 to 4 uM in representative breast, colon, and prostate cell lines using MTT assay.
Colony formation assays were also performed to confirm the activity of these compounds as described.^10 Briefly, cells were plated in 6-well plates at a density of 100 cells/well and allowed to attach. The next day, serial dilutions of the corresponding compounds were added and allowed to incubate for 24 h. After exposure, cells were washed in PBS and cultured in free media until colonies were formed (8-10 days). Cells were subsequently washed, fixed with a 1% glutaraldehyde solution for 30 min, and stained with a solution of crystal violet (2%) for 30 min. After staining, cells were thoroughly washed with water. Colonies were imaged on the Versa-Doc Imaging System (Bio-Rad) and counted using the Quantity One quantitation software package (Bio-Rad). The data reported represent means of at least three independent experiments.

[13] = 72 hours continuous exposure, read-out: IC50 values (mean ± SD)
[14] = hLNCaP, MTT, 72 h, read-out: IC50

human CYP3A4, sequence (P08684 whole entry): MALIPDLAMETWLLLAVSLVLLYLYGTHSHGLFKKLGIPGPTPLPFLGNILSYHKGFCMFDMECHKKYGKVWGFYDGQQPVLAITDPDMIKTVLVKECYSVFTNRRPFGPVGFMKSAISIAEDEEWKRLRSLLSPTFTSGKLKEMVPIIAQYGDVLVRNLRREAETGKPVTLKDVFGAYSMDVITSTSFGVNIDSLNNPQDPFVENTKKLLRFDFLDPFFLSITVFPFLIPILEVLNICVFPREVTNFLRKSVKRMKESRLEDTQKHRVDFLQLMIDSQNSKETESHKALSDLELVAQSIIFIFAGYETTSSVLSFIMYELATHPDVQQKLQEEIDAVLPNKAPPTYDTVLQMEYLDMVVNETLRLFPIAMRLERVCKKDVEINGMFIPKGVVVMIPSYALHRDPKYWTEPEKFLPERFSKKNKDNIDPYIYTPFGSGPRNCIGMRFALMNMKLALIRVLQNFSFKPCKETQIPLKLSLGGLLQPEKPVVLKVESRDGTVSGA

## O=c1[nH]cc(F)c(=O)[nH]1 [5-Fluorouracil]
MDA-MB-435 cells [1]; Homo sapiens, MDA-MB-435
  CC50: 29000 ± 10700 nM
MDA-MB-435 cells [1]; Homo sapiens
  IC80: 100000 ± 10 nM
[2]
  Cell cycle profile: S-phase

## CC[C@@]1(O)C(=O)OCc2c1cc1n(c2=O)Cc2cc3ccccc3nc2-1 [CPT, Camptothecin, reference compound]
PC3 and DU145 cells
  apoptosis (sub-G0/G1 population): 30%
MDA-MB-435 cells [1]; Homo sapiens, MDA-MB-435
  CC50: 30 ± 2 nM
MDA-MB-435 cells [1]; Homo sapiens
  IC80: 100 ± 2 nM
[3]
  IC50: 900 ± 210 nM
[4]; [13]
  IC50: 27 ± 2 nM
HEY ovarian cancer cells
  IC50: 35 ± 7 nM
[5]
  IC50: 30 ± 3 nM
MDA-MB-435 cells [6]
  early-apoptotic cells: 34%
  late-apoptosis/necrosis: 39%
[7]
  IC50: 25 ± 7 nM
[8]
  IC50: 100 ± 2 nM
DU145 cells
  early plus late apoptotic cells: 59%
[9]; [13]
  IC50: 25 ± 6 nM

## C=C/C=C(\C(=C)O)C(=O)N1N=C(C)/C(=C\c2cccc(O)c2)C1=O [SC24]
CEM or HEY cells
  IC50: 130 nM
MDA-MB-435 cells [1]
  CC50: 240 ± 30 nM
MDA-MB-435 cells [1]; Homo sapiens
  IC80: 970 nM
Human CYP3A4
  inhibition of CYP3A4 activity: does not significantly inhibit CYP3A4 activity

## O=C(NNc1nc2ccccc2n2cccc12)C1CSCN1 (stereo not shown) [SC153, Thiazolidine-4-carboxylic acid N′-pyrrolo[1,2-a]quinoxalin-4-yl-hydrazide]
[4]
  activity against the breast cancer line: inactive
[4]; MTT, 72 h, read-out: IC50
  IC50: > 20000 nM
[10]
  IC50: 15000 ± 3000 nM
[11]
  activity against colon cancer lines: moderately active
HT29 colon cancer cells
  IC50: 14000 ± 1000 nM
other
  melting point: 162 °C
[12]
  IC50: 10000 ± 2000 nM

## NC(CC(=O)NNc1nc2ccccc2n2cccc12)c1ccccc1Cl (stereo not shown) [SC160, 3-Amino-3-(2-chloro-phenyl)-propionic acid N′-pyrrolo[1,2-a]quinoxalin-4-yl-hydrazide]
[4]; MTT, 72 h, read-out: IC50
  IC50: > 20000 nM
[10]
  IC50: > 20000 nM
HT29 colon cancer cells
  IC50: 17000 nM
[9]; [14]
  IC50: > 20000 nM
[12]
  IC50: > 20000 nM

## NC(CC(=O)NNc1nc2ccccc2n2cccc12)c1ccc(Cl)cc1 (stereo not shown) [SC161, 3-Amino-3-(4-chloro-phenyl)-propionic acid N′-pyrrolo[1,2-a]quinoxalin-4-yl-hydrazide]
[4]; MTT, 72 h, read-out: IC50
  IC50: 3000 ± 2000 nM
[10]
  IC50: 400 ± 10 nM
HT29 colon cancer cells
  IC50: 300 ± 60 nM
[9]; [14]
  IC50: 400 nM
[12]
  IC50: 300 ± 70 nM

## O=C(NNc1nc2cccc(F)c2n2cccc12)c1cnccn1 [SC161′, N′-(9-Fluoropyrrolo[1,2-a]quinoxalin-4-yl)pyrazine-2-carbohydrazide hydrochloride]
[11]
  activity in all cell lines: highly active
[11]; Homo sapiens, MDA-MB-435, representative breast, colon, and prostate cell lines, MTT assay, read-out: IC50 values range
  IC50: 300 to 4000 nM
Cancer cells
  colony formation: completely blocks colony formation; also recorded: completely abolished cell growth
